The structures appear in SMILES notation.

T1 sequence (Q8NER1 whole entry): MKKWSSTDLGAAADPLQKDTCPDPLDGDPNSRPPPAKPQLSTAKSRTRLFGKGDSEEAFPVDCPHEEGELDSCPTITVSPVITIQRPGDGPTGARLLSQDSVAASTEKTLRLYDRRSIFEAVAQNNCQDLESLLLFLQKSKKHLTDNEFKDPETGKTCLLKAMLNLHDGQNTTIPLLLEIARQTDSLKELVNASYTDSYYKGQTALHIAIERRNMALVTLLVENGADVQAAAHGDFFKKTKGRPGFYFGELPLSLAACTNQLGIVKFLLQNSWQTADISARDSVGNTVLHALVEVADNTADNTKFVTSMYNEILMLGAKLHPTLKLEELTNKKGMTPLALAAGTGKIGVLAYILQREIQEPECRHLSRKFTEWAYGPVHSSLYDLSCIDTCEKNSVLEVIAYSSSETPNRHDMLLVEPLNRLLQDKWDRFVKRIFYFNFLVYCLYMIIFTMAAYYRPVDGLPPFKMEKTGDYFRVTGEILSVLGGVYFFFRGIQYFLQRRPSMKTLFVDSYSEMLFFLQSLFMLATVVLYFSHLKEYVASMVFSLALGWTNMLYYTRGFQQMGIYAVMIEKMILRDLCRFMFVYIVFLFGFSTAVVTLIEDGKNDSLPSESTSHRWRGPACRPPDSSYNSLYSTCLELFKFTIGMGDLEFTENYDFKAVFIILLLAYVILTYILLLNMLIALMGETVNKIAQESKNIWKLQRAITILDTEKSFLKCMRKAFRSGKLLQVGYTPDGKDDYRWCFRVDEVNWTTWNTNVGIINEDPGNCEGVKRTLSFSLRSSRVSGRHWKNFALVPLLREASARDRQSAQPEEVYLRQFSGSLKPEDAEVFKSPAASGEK

The first assay has as its target T1, vanilloid receptor 1 (VR1/TRPV1 receptor) (Homo sapiens, UniProt Q8NER1).
T1 construct: expressed in transfected cells; host or cells: CHO K1 cells (ECACC), stably transfected
Description: Functional testing on vanilloid receptor 1: FLIPR Ca2+ influx assay against capsaicin (Cap) in transfected CHO K1 cells (pharmacological method II). As to Ki: 100 nM capsaicin. Format: cell-based. More on the design: key to (f) Ki (human being) [nM] Cap: agonist classification: AG = agonist. To be noted: @ 1µM; human VR1 in CHO K1 cells; capsaicin; relative to maximum inhibition with 10 µM capsazepine; read-out: inhibition (as a percentage), printed in column (f) Ki (human being) [nM] Cap.
From the text: […]
Broadly, the inhibition is how much of the control response was suppressed. As to `CCOc1cc(C)cc(-n2nc(C(F)(F)F)cc2CNC(=O)Nc2ccc(COCCO)c(F)c2)c1` [A135, 1-[[2-(3-Ethoxy-5-methyl-phenyl)-5-(trifluoromethyl)-2H-pyrazol-3-yl]-methyl]-3-[3-fluoro-4-(2-hydroxy-ethoxy-methyl)-phenyl]-urea], the inhibition at 1 µM came to 15%. The same measure, in the same setting: to `CC(C(=O)NCc1cc(C(C)(C)C)nn1-c1ccc(F)cc1)c1ccc(COCCO)c(F)c1` (stereo not shown) [A124, N-[[5-tert-Butyl-2-(4-fluorophenyl)-2H-pyrazol-3-yl]-methyl]-2-[3-fluoro-4-(2-hydroxy-ethoxy-methyl)-phenyl]-propionamide] belongs 33%.

The assay is the same for the next values; noted with them: @ 5µM; human VR1 in CHO K1 cells; capsaicin; relative to maximum inhibition with 10 µM capsazepine; read-out: inhibition (as a percentage), printed in column (f) Ki (human being) [nM] Cap.
For the compound `CC(C)(C)c1cc(CNC(=O)Nc2ccc(C(O)(CO)CO)cc2)n(-c2cccc(Cl)c2)n1` [A159, 1-[[5-tert-Butyl-2-(3-chlorophenyl)-2H-pyrazol-3-yl]-methyl]-3-[4-[1,2-dihydroxy-1-(hydroxymethyl)-ethyl]-phenyl]-urea], the inhibition at 5 µM was found to be 24%.

The same assay, now with this note: human VR1 in CHO K1 cells; AG printed instead of a Ki.
On to `CC(C(=O)NCc1cc(C(C)(C)C)nn1-c1cccc(Cl)c1)c1ccc(C(O)CO)c(F)c1` (stereo not shown) [A145, N-[[5-tert-Butyl-2-(3-chlorophenyl)-2H-pyrazol-3-yl]-methyl]-2-[4-(1,2-dihydroxy-ethyl)-3-fluoro-phenyl]-propionamide], for which the “(f) Ki (human being) [nM] Cap: agonist classification” value is “AG”. Consider `CC(C(=O)NCc1cc(C(F)(F)F)nn1-c1cccc(C(F)(F)F)c1)c1ccc(CO)c(F)c1` (stereo not shown) [A48, 2-[3-Fluoro-4-(hydroxymethyl)-phenyl]-N-[[5-(trifluoromethyl)-2-[3-(trifluoromethyl)phenyl]-2H-pyrazol-3-yl]-methyl]-propionamide], for which the “(f) Ki (human being) [nM] Cap: agonist classification” value is “AG”.

Staying with this assay, now noted: read-out: (f) Ki (human being) [nM] Cap.
One may read the Ki as a measure of affinity in units of concentration, obtained from inhibition or displacement. Take `Cc1cccc(-n2nc(C(F)(F)F)cc2CNC(=O)Nc2ccc(CO)c(F)c2)c1F` [A76, 1-[3-Fluoro-4-(hydroxymethyl)-phenyl]-3-[[2-(2-fluoro-3-methyl-phenyl)-5-(trifluoromethyl)-2H-pyrazol-3-yl]-methyl]-urea]: the Ki is 41 nM. Same read-out and setting: the result for `CC(C)(C)c1cc(CNC(=O)Cc2ccc(CO)c(F)c2)n(-c2cccc(Cl)c2)n1` [A29, N-[[5-tert-Butyl-2-(3-chlorophenyl)-2H-pyrazol-3-yl]-methyl]-2-[3-fluoro-4-(hydroxymethyl)-phenyl]-acetamide] reads 1 nM; that for `O=C(NCc1cc(C(F)(F)F)nn1-c1ccc(F)c(F)c1)Nc1ccc(CO)c(F)c1` [A64, 1-[[2-(3,4-Difluoro-phenyl)-5-(trifluoromethyl)-2H-pyrazol-3-yl]-methyl]-3-[3-fluoro-4-(hydroxymethyl)-phenyl]-urea], 26 nM. The same measure, in the same setting: to `CC(C)(C)c1cc(CNC(=O)Nc2ccc(CO)c(Cl)c2)n(-c2cccc(Cl)c2)n1` [A96, 1-[[5-tert-Butyl-2-(3-chlorophenyl)-2H-pyrazol-3-yl]-methyl]-3-[3-chloro-4-(hydroxymethyl)-phenyl]-urea] belongs 2 nM; to `COc1c(F)cc(C(C)C(=O)NCc2cc(C(C)(C)C)nn2-c2cccc(Cl)c2)cc1F` (stereo not shown) [A4, N-[[5-tert-Butyl-2-(3-chlorophenyl)-2H-pyrazol-3-yl]-methyl]-2-(3,5-difluoro-4-methoxy-phenyl)-propionamide], 2 nM. For the compound `CC(C(=O)NCc1cc(C(F)(F)F)nn1-c1ccc(F)c(F)c1)c1ccc(CO)c(F)c1` (stereo not shown) [A40, N-[[2-(3,4-Difluoro-phenyl)-5-(trifluoromethyl)-2H-pyrazol-3-yl]-methyl]-2-[3-fluoro-4-(hydroxymethyl)-phenyl]-propionamide], the inhibitory constant (Ki) is 27 nM.

As for `O=C(Cc1ccc(CO)c(F)c1)NCc1cc(C(F)(F)F)nn1-c1cccc(Cl)c1` [A30, N-[[2-(3-Chlorophenyl)-5-(trifluoromethyl)-2H-pyrazol-3-yl]-methyl]-2-[3-fluoro-4-(hydroxymethyl)-phenyl]-acetamide], the Ki was 21 nM.

Take `CN(C)c1cccc(-n2nc(C(F)(F)F)cc2CNC(=O)Nc2ccc(CO)c(F)c2)c1` [A86, 1-[[2-(3-Dimethylamino-phenyl)-5-(trifluoromethyl)-2H-pyrazol-3-yl]-methyl]-3-[3-fluoro-4-(hydroxymethyl)-phenyl]-urea]: the Ki amounted to 25 nM. The same measure, in the same setting: to `COc1ccc(-n2nc(C(F)(F)F)cc2CNC(=O)Nc2ccc(CO)c(F)c2)cc1` [A68, 1-[3-Fluoro-4-(hydroxymethyl)-phenyl]-3-[[2-(4-methoxyphenyl)-5-(trifluoromethyl)-2H-pyrazol-3-yl]-methyl]-urea] belongs 13 nM; to `C[C@H](C(=O)NCc1cc(C(F)(F)F)nn1-c1cccc(Cl)c1)c1ccc(COCCO)c(F)c1` [A119, (2S)-N-[[2-(3-Chlorophenyl)-5-(trifluoromethyl)-2H-pyrazol-3-yl]-methyl]-2-[3-fluoro-4-(2-hydroxy-ethoxy-methyl)-phenyl]-propionamide], 57 nM. Regarding `O=C(NCc1cc(C(F)(F)F)nn1-c1cc(F)cc(F)c1)Nc1ccc(CO)c(F)c1` [A66, 1-[[2-(3,5-Difluoro-phenyl)-5-(trifluoromethyl)-2H-pyrazol-3-yl]-methyl]-3-[3-fluoro-4-(hydroxymethyl)-phenyl]-urea], the Ki amounted to 9 nM. Same read-out and setting: the result for `O=C(NCc1cc(C(F)(F)F)nn1-c1cccc(Cl)c1)Nc1ccc(COCCO)c(F)c1` [A127, 1-[[2-(3-Chlorophenyl)-5-(trifluoromethyl)-2H-pyrazol-3-yl]-methyl]-3-[3-fluoro-4-(2-hydroxy-ethoxy-methyl)-phenyl]-urea] reads 40 nM; that for `Cc1cccc(-n2nc(C(C)(C)C)cc2CNC(=O)Nc2ccc(CO)c(F)c2)c1` [A56, 1-[[5-tert-Butyl-2-(m-tolyl)-2H-pyrazol-3-yl]-methyl]-3-[3-fluoro-4-(hydroxymethyl)-phenyl]-urea], 2 nM. The same measure, in the same setting: to `COc1c(F)cc(CC(=O)NCc2cc(C(F)(F)F)nn2-c2ccc(F)c(Cl)c2)cc1F` [A7, N-[[2-(3-Chloro-4-fluoro-phenyl)-5-(trifluoromethyl)-2H-pyrazol-3-yl]-methyl]-2-(3,5-difluoro-4-methoxy-phenyl)-acetamide] belongs 26 nM; to `COCCOCc1ccc(C(C)C(=O)NCc2cc(C(F)(F)F)nn2-c2ccc(F)c(Cl)c2)cc1F` (stereo not shown) [A112, N-[[2-(3-Chloro-4-fluoro-phenyl)-5-(trifluoromethyl)-2H-pyrazol-3-yl]-methyl]-2-[3-fluoro-4-(2-methoxy-ethoxy-methyl)-phenyl]-propionamide], 79 nM; to `CC(C(=O)NCc1cc(C(C)(C)C)nn1-c1cccc(OC(F)(F)F)c1)c1ccc(COCCO)c(F)c1` (stereo not shown) [A125, N-[[5-tert-Butyl-2-[3-(trifluoromethyloxy)-phenyl]-2H-pyrazol-3-yl]-methyl]-2-[3-fluoro-4-(2-hydroxy-ethoxy-methyl)-phenyl]-propionamide], 15 nM. With `O=C(NCc1cc(C(F)(F)F)nn1-c1cccc(Cl)c1Cl)Nc1ccc(CO)c(F)c1` [A89, 1-[[2-(2,3-Dichloro-phenyl)-5-(trifluoromethyl)-2H-pyrazol-3-yl]-methyl]-3-[3-fluoro-4-(hydroxymethyl)-phenyl]-urea], the Ki was found to be 45 nM. On the same count and under the same terms, to `COCc1cccc(-n2nc(C(F)(F)F)cc2CNC(=O)Nc2ccc(CO)c(F)c2)c1` [A84, 1-[3-Fluoro-4-(hydroxymethyl)-phenyl]-3-[[2-[3-(methoxymethyl)-phenyl]-5-(trifluoromethyl)-2H-pyrazol-3-yl]-methyl]-urea] belongs 53 nM; to `CC(C)c1cccc(-n2nc(C(F)(F)F)cc2CNC(=O)C(C)c2ccc(CCO)c(F)c2)c1` (stereo not shown) [A137, 2-[3-Fluoro-4-(2-hydroxy-ethyl)-phenyl]-N-[[2-(3-isopropyl-phenyl)-5-(trifluoromethyl)-2H-pyrazol-3-yl]-methyl]-propionamide], 0.6 nM. With `O=C(NCc1cc(C(F)(F)F)nn1-c1cccc(Cl)c1)Nc1ccc(OCCO)c(F)c1` [A20, 1-[[2-(3-Chlorophenyl)-5-(trifluoromethyl)-2H-pyrazol-3-yl]-methyl]-3-[3-fluoro-4-(2-hydroxy-ethoxy)-phenyl]-urea], the inhibitory constant (Ki) was found to be 37 nM. Turning to `Cc1cc(C)cc(-n2nc(C(F)(F)F)cc2CNC(=O)Nc2ccc(CO)c(F)c2)c1` [A73, 1-[[2-(3,5-Dimethyl-phenyl)-5-(trifluoromethyl)-2H-pyrazol-3-yl]-methyl]-3-[3-fluoro-4-(hydroxymethyl)-phenyl]-urea], the Ki was 27 nM.

Consider `Cc1cc(F)cc(-n2nc(C(F)(F)F)cc2CNC(=O)Nc2ccc(CO)c(F)c2)c1` [A77, 1-[3-Fluoro-4-(hydroxymethyl)-phenyl]-3-[[2-(3-fluoro-5-methyl-phenyl)-5-(trifluoromethyl)-2H-pyrazol-3-yl]-methyl]-urea], for which the Ki turned out to be 19 nM.

In the case of `O=C(NCc1cc(C(F)(F)F)nn1-c1ccc(F)c(Cl)c1)Nc1ccc(OCCO)c(F)c1` [A22, 1-[[2-(3-Chloro-4-fluoro-phenyl)-5-(trifluoromethyl)-2H-pyrazol-3-yl]-methyl]-3-[3-fluoro-4-(2-hydroxy-ethoxy)-phenyl]-urea], the Ki turned out to be 40 nM. Still for that read-out and setting: to `CC(C)(C)c1cc(CNC(=O)Nc2ccc(CO)c(F)c2)n(-c2ccc(F)c(F)c2)n1` [A57, 1-[[5-tert-Butyl-2-(3,4-difluoro-phenyl)-2H-pyrazol-3-yl]-methyl]-3-[3-fluoro-4-(hydroxymethyl)-phenyl]-urea] belongs 2 nM; to `COc1ccc(NC(=O)NCc2cc(C(F)(F)F)nn2-c2cccc(Cl)c2)cc1OC` [A14, 1-[[2-(3-Chlorophenyl)-5-(trifluoromethyl)-2H-pyrazol-3-yl]-methyl]-3-(3,4-dimethoxyphenyl)-urea], 25 nM. Consider `O=C(NCc1cc(C(F)(F)F)nn1-c1cccc(Cl)c1)Nc1ccc(CCO)c(F)c1` [A141, 1-[[2-(3-Chlorophenyl)-5-(trifluoromethyl)-2H-pyrazol-3-yl]-methyl]-3-[3-fluoro-4-(2-hydroxy-ethyl)-phenyl]-urea], for which the inhibitory constant (Ki) is 26 nM.

For the origin of these results see EP2776398B1, “SUBSTITUTED PYRAZOLYL-BASED UREA DERIVATIVES AS VANILLOID RECEPTOR LIGANDS” (Medifron DBT Inc., priority 2011, dated 2013).
